Experiments:
[1] = biological target: T1, Serine/threonine-protein kinase Sgk1 (Homo sapiens, UniProt O00141); experiment: Inhibition of recombinant human SGK1 expressed in baculovirus expression system using 5-carboxyfluorescein -RPRAATF-NH2 as substrate preincubated for 30 mins followed by substrate addition in presence of 10 uM ATP and measured after 60 mins by microfluidics assay
T1 sequence (O00141 whole entry): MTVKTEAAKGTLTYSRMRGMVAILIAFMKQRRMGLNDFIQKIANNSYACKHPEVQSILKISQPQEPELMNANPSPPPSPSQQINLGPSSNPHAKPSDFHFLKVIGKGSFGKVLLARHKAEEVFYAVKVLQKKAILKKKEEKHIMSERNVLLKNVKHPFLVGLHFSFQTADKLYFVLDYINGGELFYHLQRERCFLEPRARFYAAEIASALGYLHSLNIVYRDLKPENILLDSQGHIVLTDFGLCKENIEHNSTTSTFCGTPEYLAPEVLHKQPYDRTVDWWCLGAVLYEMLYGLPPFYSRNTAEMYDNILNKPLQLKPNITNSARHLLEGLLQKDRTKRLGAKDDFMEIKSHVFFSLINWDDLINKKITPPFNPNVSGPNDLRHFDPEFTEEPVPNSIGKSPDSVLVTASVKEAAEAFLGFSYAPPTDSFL

[2] = biological target: T1, Serine/threonine-protein kinase Sgk1; experiment: Inhibition of recombinant human SGK1 expressed in baculovirus expression system using 5-carboxyfluorescein -RPRAATF-NH2 as substrate preincubated for 30 mins followed by substrate addition in presence of 500 uM ATP and measured after 60 mins by microfluidics assay
[3] = Photostability of compound; assay type: physicochemical

Compound | IC50 [1] | IC50 [2] | Stability [3]
Cc1n[nH]c2nc(-c3ccc(NS(=O)(=O)c4cc(Cl)ccc4F)cc3)nc(OCC(F)(F)CN)c12 | 3 nM | 5 nM | 
Nc1n[nH]c2nc(-c3ccc(NS(=O)(=O)c4ccccc4Cl)cc3)ccc12 |  |  | 46.1%
Nc1nc(CNC(=O)c2cc(-c3ccc(NS(=O)(=O)c4cccc(Cl)c4Cl)cc3)nc3[nH]ncc23)cs1 | 19 nM | 2470 nM | 
CN1CC(NC(=O)c2cc(-c3ccc(NS(=O)(=O)c4cccc(Cl)c4Cl)cc3)nc3[nH]ncc23)C1 | < 1 nM | < 1 nM | 
CC(C)NC(=O)c1cc(-c2ccc(NS(=O)(=O)c3cccc(Cl)c3Cl)cc2)nc2[nH]ncc12 | 68 nM | 17600 nM | 
Cc1n[nH]c2nc(-c3ccc(NS(=O)(=O)c4cc(Cl)ccc4F)cc3)nc(Oc3ccc(N)nc3)c12 | 4 nM | 11 nM | 
O=C(NCc1cc[nH]n1)c1cc(-c2ccc(NS(=O)(=O)c3cccc(Cl)c3Cl)cc2)nc2[nH]ncc12 |  | 963 nM | 
CCNC(=O)c1cc(-c2ccc(NS(=O)(=O)c3cccc(Cl)c3Cl)cc2)nc2[nH]ncc12 | 6 nM | < 1920 nM | 
Cc1n[nH]c2nc(-c3ccc(NS(=O)(=O)c4cc(Cl)ccc4F)cc3)nc(OC3CC(C)(C)N(C)C(C)(C)C3)c12 | 2 nM | 3 nM | 
O=C(NC1CCN(CC2CC2)C1)c1cc(-c2ccc(NS(=O)(=O)c3cccc(Cl)c3Cl)cc2)nc2[nH]ncc12 (racemic) | 1 nM | 35 nM | 
O=C(NCc1nn[nH]n1)c1cc(-c2ccc(NS(=O)(=O)c3cccc(Cl)c3Cl)cc2)nc2[nH]ncc12 | 4 nM | 813 nM | 
Nc1n[nH]c2nc(-c3ccc(NS(=O)(=O)c4cc(Cl)ccc4F)cc3)ncc12 |  |  | 99.3%
Cc1n[nH]c2nc(-c3ccc(NS(=O)(=O)c4cc(Cl)ccc4F)cc3)nc(OC3CC(C)(C)NC(C)(C)C3)c12 | 3 nM | 4 nM | 
CN1CCC(NC(=O)c2cc(-c3ccc(NS(=O)(=O)c4cccc(Cl)c4Cl)cc3)nc3[nH]ncc23)C1 (racemic) | < 1 nM | 21 nM | 
Cc1n[nH]c2nc(-c3ccc(NS(=O)(=O)c4cc(Cl)ccc4F)cc3)nc(OCC3CN(C(C)C)C3)c12 | 1 nM | 1 nM | 
CCN1CCCC(Oc2nc(-c3ccc(NS(=O)(=O)c4cc(Cl)ccc4F)cc3)nc3[nH]nc(C)c23)C1 (centres undefined) | 6 nM |  | 
Nc1n[nH]c2nc(-c3ccc(NS(=O)(=O)c4c(F)cc(F)cc4F)cc3)ccc12 |  |  | 97.4%
O=C(NC1CCN(CCO)C1)c1cc(-c2ccc(NS(=O)(=O)c3cccc(Cl)c3Cl)cc2)nc2[nH]ncc12 (racemic) | 1 nM | 12 nM | 
Nc1n[nH]c2nc(-c3ccc(NS(=O)(=O)c4cccc(Cl)c4F)cc3)ccc12 |  |  | 87.2%

Compound | IC50 [1] | IC50 [2] | Stability [3]
O=C(N[C@@H]1CCNC1)c1cc(-c2ccc(NS(=O)(=O)c3cccc(Cl)c3Cl)cc2)nc2[nH]ncc12 | < 1 nM | < 1 nM | 
Cc1n[nH]c2nc(-c3ccc(NS(=O)(=O)c4cc(Cl)ccc4F)cc3)nc(OC3CCNCC3(F)F)c12 (centres undefined) | 1 nM | 1 nM | 
CCOc1nc(-c2ccc(NS(=O)(=O)c3cc(Cl)ccc3F)cc2)nc2[nH]nc(C)c12 | 23 nM | 183 nM | 
Cc1n[nH]c2nc(-c3ccc(NS(=O)(=O)c4cc(Cl)ccc4F)cc3)nc(OCCCN)c12 | < 2 nM | < 2 nM | 
Cc1n[nH]c2nc(-c3ccc(NS(=O)(=O)c4cc(Cl)ccc4F)cc3)nc(OC3CCNCC3)c12 | 1 nM | 1 nM | 
O=C(NCc1ncc[nH]1)c1cc(-c2ccc(NS(=O)(=O)c3cccc(Cl)c3Cl)cc2)nc2[nH]ncc12 | < 1 nM | 128 nM | 
Nc1n[nH]c2nc(-c3ccc(NS(=O)(=O)c4cc(Cl)c(F)cc4F)cc3)ncc12 |  |  | 98.6%
Cc1n[nH]c2nc(-c3ccc(NS(=O)(=O)c4cc(Cl)ccc4F)cc3)nc(OCC3(CN)COC3)c12 | 1 nM | 1 nM | 
O=C(NCc1ncn[nH]1)c1cc(-c2ccc(NS(=O)(=O)c3cccc(Cl)c3Cl)cc2)nc2[nH]ncc12 | 1 nM | 107 nM | 
Nc1n[nH]c2nc(-c3ccc(NS(=O)(=O)c4cccc(Cl)c4Cl)cc3)ccc12 |  |  | 10.1%
CN(CCO)C(=O)c1cc(-c2ccc(NS(=O)(=O)c3cccc(Cl)c3Cl)cc2)nc2[nH]ncc12 | < 1 nM | 24 nM | 
Cc1n[nH]c2nc(-c3ccc(NS(=O)(=O)c4cc(Cl)ccc4F)cc3)nc(OC3CCC(O)CC3)c12 (centres undefined) | < 2 nM | < 2 nM | 
O=C(NCCn1cnnc1)c1cc(-c2ccc(NS(=O)(=O)c3cccc(Cl)c3Cl)cc2)nc2[nH]ncc12 | 3 nM | 609 nM | 
O=C(NC1CCN(C2CC2)C1)c1cc(-c2ccc(NS(=O)(=O)c3cccc(Cl)c3Cl)cc2)nc2[nH]ncc12 (racemic) | 6 nM | 610 nM | 
Cc1n[nH]c2nc(-c3ccc(NS(=O)(=O)c4cc(Cl)ccc4F)cc3)nc(OCC(CO)CO)c12 | 1 nM | 2 nM | 
CC(C)N1CC[C@H](NC(=O)c2cc(-c3ccc(NS(=O)(=O)c4cccc(Cl)c4Cl)cc3)nc3[nH]ncc23)C1 | 4 nM | 38 nM | 
Cc1n[nH]c2nc(-c3ccc(NS(=O)(=O)c4cc(Cl)ccc4F)cc3)nc(OCC3CNCCO3)c12 (centres undefined) | 2 nM | 2 nM | 
Cc1n[nH]c2nc(-c3ccc(NS(=O)(=O)c4cc(Cl)ccc4F)cc3)nc(OCCCO)c12 | 2 nM | 10 nM | 
Cc1n[nH]c2nc(-c3ccc(NS(=O)(=O)c4cc(Cl)ccc4F)cc3)nc(Oc3ccc(O)nc3)c12 | 2 nM | 4 nM | 

Compound | IC50 [1] | IC50 [2] | Stability [3]
CN(C)CCCNC(=O)c1cc(-c2ccc(NS(=O)(=O)c3cccc(Cl)c3Cl)cc2)nc2[nH]ncc12 |  | 633 nM | 
Cc1n[nH]c2nc(-c3ccc(NS(=O)(=O)c4cc(Cl)ccc4F)cc3)nc(OC3CCNCC3F)c12 (centres undefined) | 1 nM | 1 nM | 
Cc1n[nH]c2nc(-c3ccc(NS(=O)(=O)c4cc(Cl)ccc4F)cc3)nc(OCCC(=O)N(C)C)c12 | 15 nM | 438 nM | 
CNC(=O)c1cc(-c2ccc(NS(=O)(=O)c3cccc(Cl)c3Cl)cc2)nc2[nH]ncc12 | 4 nM | 929 nM | 
Cc1n[nH]c2nc(-c3ccc(NS(=O)(=O)c4cc(Cl)ccc4F)cc3)nc(OC3CCOCC3)c12 | 5 nM | 14 nM | 
CCN1CCC(CNC(=O)c2cc(-c3ccc(NS(=O)(=O)c4cccc(Cl)c4Cl)cc3)nc3[nH]ncc23)C1 (racemic) | < 1 nM | 109 nM | 
O=C(c1cc(-c2ccc(NS(=O)(=O)c3cccc(Cl)c3Cl)cc2)nc2[nH]ncc12)N1CCNCC1 | 2 nM | 1280 nM | 
NCCNC(=O)c1cc(-c2ccc(NS(=O)(=O)c3cccc(Cl)c3Cl)cc2)nc2[nH]ncc12 | < 1 nM | < 1 nM | 
NC(=O)c1cc(-c2ccc(NS(=O)(=O)c3cccc(Cl)c3Cl)cc2)nc2[nH]ncc12 | 1 nM | 236 nM | 
O=C(NCc1nncs1)c1cc(-c2ccc(NS(=O)(=O)c3cccc(Cl)c3Cl)cc2)nc2[nH]ncc12 | 109 nM | 1270 nM | 
O=C(NCc1cocn1)c1cc(-c2ccc(NS(=O)(=O)c3cccc(Cl)c3Cl)cc2)nc2[nH]ncc12 | < 1 nM | 327 nM | 
CN1CCC(CNC(=O)c2cc(-c3ccc(NS(=O)(=O)c4cccc(Cl)c4Cl)cc3)nc3[nH]ncc23)C1 (racemic) | 14 nM | 45 nM | 
Nc1n[nH]c2nc(-c3ccc(NS(=O)(=O)c4cc(Cl)ccc4F)cc3)ccc12 |  |  | 91.7%
CCN1CCC(Oc2nc(-c3ccc(NS(=O)(=O)c4cc(Cl)ccc4F)cc3)nc3[nH]nc(C)c23)CC1 | 2 nM | 4 nM | 
Cc1n[nH]c2nc(-c3ccc(NS(=O)(=O)c4cc(Cl)ccc4F)cc3)nc(OC3CCN(CC(F)(F)F)CC3)c12 | 55 nM | 265 nM | 
Cc1n[nH]c2nc(-c3ccc(NS(=O)(=O)c4cc(Cl)ccc4F)cc3)nc(OC3CCC(=O)CC3)c12 | 5 nM | 18 nM | 
O=C(NCCc1cc[nH]n1)c1cc(-c2ccc(NS(=O)(=O)c3cccc(Cl)c3Cl)cc2)nc2[nH]ncc12 | 10 nM | 246 nM | 
COCCN1CCC(Oc2nc(-c3ccc(NS(=O)(=O)c4cc(Cl)ccc4F)cc3)nc3[nH]nc(C)c23)CC1 | 3 nM | 5 nM | 
Cc1n[nH]c2nc(-c3ccc(NS(=O)(=O)c4cc(Cl)ccc4F)cc3)nc(OC3CCCNC3)c12 (centres undefined) | 1 nM | 1 nM | 
